Measurements as given in patent publication US5965718A, “Analogs of sarcodictyin and eleutherobin” (priority 1998, dated 1999).
“Also recorded” adds a separate entry of the source.

Key:
[1] = system: tubulin; ovarian cancer cells (1A9, 1A9PTX10, 1A9PTX22); conditions: in words; for biological activity (tubulin polymerization and/or cytotoxicity), SAR statement: compared with natural products 7 and 8; for biological activity on modification of the alcohol component of the ester group: compared with the methyl ester (compound 600)
Experimental: (§1) FIG. 21 tabulates cytotoxicity data of sarcodictyins with the following tubulin polymerization and cytotoxicity properties of sarcodictyins: (a) The tubulin polymerization measurements were performed at 37° C. except for adjustments in drug concentration ([…]) and incubation time (90 min). (b) The cytotoxicity experiments were carried out as previously described (Giannakakou et al. J. Biol. Chem. 1995, 272, 17118-17125; Nicolaou et al. Angew. Chem. Int. Ed. Engl. 1997, 36, 2097-2103).
(§2) The synthesized sarcodictyin library (shown in FIG. 20) was screened for induction of tubulin polymerization using the filtration calorimetric assay and […] at 37° C. (results are listed in FIG. 20; Bollag et al. Cancer Res. 1995, 55, 2325-2333). These investigations were then followed by cytotoxicity studies with ovarian cancer cells (1A9) including two taxol-resistant lines (1A9PTX10 and 1A9PTX22; Giannakakou et al. J. Biol. Chem. 1995, 272, 17118-17125). The data reveal a number of important structure activity relationships (SARs).

tubulin = assay: induction of tubulin polymerization, filtration calorimetric assay; assay type: biochemical; conditions: 100 m compound at 37° C.; in words, compared with sarcodictyins A (7) and B (8); figures only in FIG. 20
Experimental: as §1, §2

[2] = system: ovarian cancer cells (1A9); assay type: cell-based; conditions: 1A9 and taxol-resistant lines; in words, compared with natural substances 7 and 8; figures only in FIG. 21
Experimental: as §1, §2

[3] = system: taxol-resistant lines (1A9PTX10 and 1A9PTX22); assay: cytotoxicity against taxol-resistant tumor cell lines; assay type: cell-based; conditions: in words
Experimental: as §1, §2

Structure (SMILES) | biological activity (tubulin polymerization and/or cytotoxicity), SAR statement [1] | tubulin polymerization properties / potencies (tubulin) | cytotoxicity potency [2] | cytotoxicity / biological activity against the taxol-resistant cell lines [3] | biological activity on modification of the alcohol component of the ester group [1]
COC(=O)/C1=C/[C@@H]2[C@@H](C(C)C)CC=C(C)[C@@H]2C[C@H](OC(=O)/C=C/c2ccccn2)[C@]2(C)C=C[C@@]1(OC)O2 [Compound 480] | considerable loss of activity | – | – | – | –
COC(=O)/C1=C/[C@@H]2[C@@H](C(C)C)CC=C(C)[C@@H]2C[C@H](OC(=O)/C=C/c2csc(C)n2)[C@]2(C)C=C[C@@]1(OC)O2 [Compound 490] | considerable loss of activity | – | – | – | –
CCOC(=O)/C1=C/[C@@H]2[C@@H](C(C)C)CC=C(C)[C@@H]2C[C@H](OC(=O)/C=C/c2coc(C)n2)[C@]2(C)C=C[C@@]1(OC)O2 [Compound 500] | considerable loss of activity | – | – | – | –
COC(=O)C1=CC2C(CC(OC(=O)/C=C/c3cn(C)cn3)C3(C)C=CC1(OC)O3)C(C)=CCC2C(C)C (stereo not drawn) [Compound 600] | equal or superior biological activities | superior tubulin polymerization properties to those of either sarcodictyins A (7) or B (8) | potencies comparable or higher that those of the natural substances | Particularly striking; also recorded: enhanced biological activity | –
CCOC(=O)C1=CC2C(CC(OC(=O)/C=C/c3cn(C)cn3)C3(C)C=CC1(OC)O3)C(C)=CCC2C(C)C (stereo not drawn) [Compound 610] | equal or superior biological activities | not always in line with their cytotoxicity effects | potencies comparable or higher that those of the natural substances | Particularly striking; also recorded: enhanced biological activity | enhancement of the biological activity
CO[C@]12C=C[C@](C)(O1)[C@@H](OC(=O)/C=C/c1cn(C)cn1)C[C@H]1C(C)=CC[C@H](C(C)C)[C@H]1/C=C\2C(=O)OCCCl [Compound 630] | equal or superior biological activities | – | potencies comparable or higher that those of the natural substances | – | reversal of the trend
CO[C@]12C=C[C@](C)(O1)[C@@H](OC(=O)/C=C/c1cn(C)cn1)C[C@H]1C(C)=CC[C@H](C(C)C)[C@H]1/C=C\2C(=O)OCCCCc1ccccc1 [Compound 660] | – | modest | cytotoxicity comparable to, or better than, the natural products | – | –
CCCCOC(=O)/C1=C/[C@@H]2[C@@H](C(C)C)CC=C(C)[C@@H]2C[C@H](OC(=O)/C=C/c2cn(C)cn2)[C@]2(C)C=C[C@@]1(OC)O2 [Compound 670] | – | – | – | Particularly striking | –
CCCOC(=O)/C1=C/[C@@H]2[C@@H](C(C)C)CC=C(C)[C@@H]2C[C@H](OC(=O)/C=C/c2cn(C)cn2)[C@]2(C)C=C[C@@]1(OC)O2 [Compound 680] | – | – | – | Particularly striking | enhancement of the biological activity
CO[C@]12C=C[C@](C)(O1)[C@@H](OC(=O)/C=C/c1cn(C)cn1)C[C@H]1C(C)=CC[C@H](C(C)C)[C@H]1/C=C\2C(=O)OCCOCc1ccccc1 [Compound 690] | – | modest | cytotoxicity comparable to, or better than, the natural products | – | –
C=CCOC(=O)/C1=C/[C@@H]2[C@@H](C(C)C)CC=C(C)[C@@H]2C[C@H](OC(=O)/C=C/c2cn(C)cn2)[C@]2(C)C=C[C@@]1(OC)O2 [Compound 700] | – | not always in line with their cytotoxicity effects | – | – | enhancement of the biological activity
CO[C@]12C=C[C@](C)(O1)[C@@H](OC(=O)/C=C/c1cn(C)cn1)C[C@H]1C(C)=CC[C@H](C(C)C)[C@H]1/C=C\2C(=O)OCCC(C)C [Compound 710] | – | – | – | – | reversal of the trend
COC(OC)/C1=C/[C@@H]2[C@@H](C(C)C)CC=C(C)[C@@H]2C[C@H](OC(=O)/C=C/c2cn(C)cn2)[C@]2(C)C=C[C@@]1(OC)O2 [Compound 730] | – | – | potencies comparable or higher that those of the natural substances | Particularly striking | –
CCCOC(=O)/C1=C/[C@@H]2[C@@H](C(C)C)CC=C(C)[C@@H]2C[C@H](OC(=O)/C=C/c2cn(C)cn2)[C@]2(C)C=C[C@@]1(OCC(F)(F)F)O2 [Compound 840] | – | – | overall decrease of cytotoxicity | – | –
CCO[C@]12C=C[C@](C)(O1)[C@@H](OC(=O)/C=C/c1cn(C)cn1)C[C@H]1C(C)=CC[C@H](C(C)C)[C@H]1/C=C\2C(=O)OC [Compound 850] | equal or superior biological activities | superior tubulin polymerization properties to those of either sarcodictyins A (7) or B (8) | potencies comparable or higher that those of the natural substances | Particularly striking | –
CO[C@]12C=C[C@](C)(O1)[C@@H](OC(=O)/C=C/c1cn(C)cn1)C[C@H]1C(C)=CC[C@H](C(C)C)[C@H]1/C=C\2C(=O)OCc1c2ccccc2cc2ccccc12 [Compound 920] | equal or superior biological activities | modest | – | Particularly striking | –
COC(=O)/C1=C/[C@@H]2[C@@H](C(C)C)CC=C(C)[C@@H]2C[C@H](OC(=O)/C=C/c2ccccc2)[C@]2(C)C=C[C@@]1(OC)O2 [Compound 990] | only negligible biological activity | – | – | – | –
COC(=O)/C1=C/[C@@H]2[C@@H](C(C)C)CC=C(C)[C@@H]2C[C@H](OC(=O)Nc2ccccc2)[C@]2(C)C=C[C@@]1(OC)O2 [Compound 1010] | complete loss of activity | – | – | – | –
COC(=O)/C1=C/[C@@H]2[C@@H](C(C)C)CC=C(C)[C@@H]2C[C@H](OC(C)=O)[C@]2(C)C=C[C@@]1(OC)O2 [Compound 1070] | complete loss of activity | – | – | – | –
CO[C@]12C=C[C@](C)(O1)[C@@H](OC(=O)/C=C/c1cn(C)cn1)C[C@H]1C(C)=CC[C@H](C(C)C)[C@H]1/C=C\2CO[C@@H]1OC[C@@H](O)[C@@H](O)[C@@H]1OC(C)=O [eleutherobin] | potent biological actions | – | – | – | –
